Like-named read-outs stand apart in the source and are kept apart here.
How the values were obtained:
[1] = cited from earlier work
[2] = cited from earlier work; remark: listed apart in the source
[3] = In vitro phantom quantitative T2 mapping (spin-spin relaxation MRI contrast) at 7 T
Method: Data are provided from quantitative T2 mapping at 7 T using a RARE FSE protocol with at least 6 different echo times, at solute concentrations of 10 and 20 mM.

[4] = cited from earlier work; remark: listed apart in the source
[5] = test system: brain of normal C57 black mouse; assay: In vivo ascorbate T2 contrast changes in normal mouse brain; conditions: 2 g/kg i.v., normal C57 mice, FIG. 9B
Method: Color-lute maps of signal intensity are not subtracted from the pre-dose scan and therefore show the expected decreases in T2 signal over time, maximized between 30-60 min in normal C57 mice.

[6] = test system: whole brains of guinea pigs; assay: T2 contrast changes in guinea pig brain after i.v. ascorbate formulations, 7 T; format: in vivo; conditions: 2 g/kg i.v. over 60 minutes, nearly every time point
Method: MRI was performed for 90 minutes.

## O=C1O[C@H]([C@@H](O)CO)C(O)=C1O [ascorbate, L-ascorbic acid]
[1]; disproportionation reaction at equilibrium
  pKA: 7.0
[1]; hydroxyl group at the 4 position
  pKA: 6.75
[1]; physiological pH (7.4)
  fraction present as the mono anion: 99%
[2]; brain and tumors
  H2O2 concentration in brain and tumors in vivo following parenteral ascorbate: 100 to 200 µM
[2]; tumors, brain cells and some other tissues
  intracellular concentration: 10 to 30 mM
[3]; 10 mM ascorbate with physiological glucose (5 mM) or HCO3- (25 mM), FIG. 5
  change in T2 relaxation: 50%
[3]; FIG. 3C
  pH at which T2 effect is maximized: 7.0-7.4
[3]; vs phosphate-buffered saline control, conventional FSE acquisition, FIG. 3A
  lowest concentration with statistically significant negative T2 contrast (signal loss): 1 to 5 mM
[4]; administered intravenously
  plasma concentration achievable: ≥ 10000 µM
[4]; oral ascorbate, doses more than 100 times the recommended daily allowance
  plasma concentration: ≤ 200 µM
[4]; urinary excretion of concentrations over the renal re-absorption threshold
  excretion half-life: about 30 minutes
[5]
  time of maximal decrease in T2 signal: 30 to 60 min

## meglumine ascorbate
[6]
  FSE T2 weighted signal intensity changes, comparison between formulations: greater than those observed with sodium ascorbate (1)
[3]; water, neutral pH, FIG. 3D
  T2 contrast effect (T2 relaxation in ms) relative to meglumine or ascorbate alone: approximately 4 times

From patent US11235074B2, “Contrast agents for magnetic resonance imaging” (Duke University, priority 2015, dated 2022)
